Assays:
[1] = biological target: KvLQT1/mink (Homo sapiens, UniProt P51787); experiment: Mini-profiling panel, ion channel; assay type: cell-based
Description: (§1) Further insight into selectivity was evaluated in a functional panel of 47 representative targets closely related to human life activities, including G protein‐coupled receptors, transporters, ion channels, kinases, nuclear hormone receptor targets, and nonkinase enzymes (Table S3).

[2] = biological target: nAChR(a4/b2) (Homo sapiens, UniProt P17787+P43681); experiment: Mini-profiling panel, ion channel; assay type: cell-based
Description: as §1

[3] = biological target: NAV1.5 (Homo sapiens, UniProt Q14524); experiment: Mini-profiling panel, ion channel; assay type: cell-based
Description: as §1

[4] = biological target: HTR3A (Homo sapiens, UniProt P46098); experiment: Mini-profiling panel, ion channel; assay type: cell-based
Description: as §1

[5] = biological target: NMDAR (1A/2B) (Homo sapiens, UniProt Q05586+Q13224); experiment: Mini-profiling panel, ion channel; assay type: cell-based
Description: as §1

[6] = biological target: LCK (Homo sapiens, UniProt P06239); experiment: Mini-profiling panel, kinase; assay type: biochemical; settings: Kinases; read-out: LCK Inhibitor IC50
[7] = biological target: AChE (Homo sapiens, UniProt P22303); experiment: Mini-profiling panel, non-kinase enzyme; assay type: biochemical; settings: Non-Kinase Enzymes; read-out: AChE Inhibitor IC50
[8] = biological target: PDE3A (Homo sapiens, UniProt Q14432); experiment: Mini-profiling panel, non-kinase enzyme; assay type: biochemical; settings: Non-Kinase Enzymes; read-out: PDE3A Inhibitor IC50
[9] = biological target: CNR1 (Homo sapiens, UniProt P21554); experiment: Mini-profiling panel, GPCR; assay type: cell-based
Description: as §1

[10] = biological target: HTR2B (Homo sapiens, UniProt P41595); experiment: Mini-profiling panel, GPCR; assay type: cell-based
Description: as §1

[11] = biological target: OPRM1 (Homo sapiens, UniProt P35372); experiment: Mini-profiling panel, GPCR; assay type: cell-based
Description: as §1

[12] = biological target: OPRD1 (Homo sapiens, UniProt P41143); experiment: Mini-profiling panel, GPCR; assay type: cell-based
Description: as §1

[13] = biological target: CHRM1 (Homo sapiens, UniProt P11229); experiment: Mini-profiling panel, GPCR; assay type: cell-based
Description: as §1

[14] = biological target: CHRM3 (Homo sapiens, UniProt P20309); experiment: Mini-profiling panel, GPCR; assay type: cell-based
Description: as §1

[15] = biological target: CNR2 (Homo sapiens, UniProt P34972); experiment: Mini-profiling panel, GPCR; assay type: cell-based
Description: as §1

[16] = biological target: DRD1 (Homo sapiens, UniProt P21728); experiment: Mini-profiling panel, GPCR; assay type: cell-based
Description: as §1

[17] = system: WI-38 (human fetal lung fibroblast cells); experiment: Proliferation assay (CellTiter-Glo); assay type: cell-based; settings: MTAP WT; read-out: IC50, anti-proliferation WI-38
Description: (§2) HCT116 colon carcinoma parental (WT) cells with MTAP ^−/− isogenic clone were established by KYinno Biotechnology Co., Ltd. (Beijing, China). A549, MIA PaCa‐2, and WI‐38 cell lines were obtained from ATCC. NCI‐H838 was obtained from Cobioer Biosciences. HCT116 WT and KO MTAP cells were cultured in McCoy's 5A media containing 10% FBS. A549 cells were cultured in DMEM media containing 10% FBS. MIA PaCa‐2 cells were cultured in DMEM media containing 10% FBS and 2.5% horse serum. NCI‐H838 cells were cultured in PRMI 1640 media containing 10% FBS. WI‐38 cells were cultured in EMEM media containing 10% FBS.
(§3) Cells were plated in 96‐well cell culture plates and allowed to attach overnight at 37°C in 5% CO2. Compounds diluted in DMSO were added to cells in a dose–response format for 6 days. The final concentration of DMSO was 0.1% in media. Cell proliferation was measured using CellTiter‐Glo Cell Viability Assay (Promega). The IC50 values were calculated using the GraphPad Prism 9. Drug combination effects were analyzed using Combenefit software.[45]

[18] = system: HCT116 MTAP−/− cells; experiment: Proliferation assay (CellTiter-Glo); assay type: cell-based
Description: as §2, §3

[19] = system: HCT116 WT cells; experiment: Proliferation assay (CellTiter-Glo); assay type: cell-based; settings: Homo sapiens, HCT-116, 144 h; 6-day treatment; read-out: IC50, anti-proliferation HCT116 WT
Description: as §2, §3

[20] = system: NCI-H838; experiment: Proliferation assay (CellTiter-Glo); assay type: cell-based; settings: Homo sapiens, NCI-H838, 144 h; MTAP-deleted, 6-day; read-out: IC50, anti-proliferation NCI-H838
Description: as §2, §3

[21] = system: MIA PaCa-2; experiment: Proliferation assay (CellTiter-Glo); assay type: cell-based; settings: Homo sapiens, MIA PaCa-2, 144 h; MTAP-deleted, 6-day; read-out: IC50, anti-proliferation MIA PaCa-2
Description: as §2, §3

[22] = system: A549; experiment: Proliferation assay (CellTiter-Glo); assay type: cell-based; settings: Homo sapiens, A549, 144 h; MTAP-deleted, 6-day; read-out: IC50, anti-proliferation A549
Description: as §2, §3

[23] = biological target: VEGFR2 (Homo sapiens, UniProt P35968); experiment: Mini-profiling panel, kinase; assay type: biochemical; settings: Kinases; read-out: VEGFR2 Inhibitor IC50
[24] = system: HCT116 MTAP−/− cells; experiment: Combination proliferation assay with PRMT5 inhibitors (Bliss model); assay type: cell-based; settings: 8 days
Description: as §3, with “Compounds diluted in DMSO were added to cells in a dose–response format for 6 days.” left out

[25] = biological target: GR (Homo sapiens, UniProt P04150); experiment: Mini-profiling panel, nuclear hormone receptor; assay type: cell-based; settings: NHR Targets
Sequence of GR (P04150 whole entry): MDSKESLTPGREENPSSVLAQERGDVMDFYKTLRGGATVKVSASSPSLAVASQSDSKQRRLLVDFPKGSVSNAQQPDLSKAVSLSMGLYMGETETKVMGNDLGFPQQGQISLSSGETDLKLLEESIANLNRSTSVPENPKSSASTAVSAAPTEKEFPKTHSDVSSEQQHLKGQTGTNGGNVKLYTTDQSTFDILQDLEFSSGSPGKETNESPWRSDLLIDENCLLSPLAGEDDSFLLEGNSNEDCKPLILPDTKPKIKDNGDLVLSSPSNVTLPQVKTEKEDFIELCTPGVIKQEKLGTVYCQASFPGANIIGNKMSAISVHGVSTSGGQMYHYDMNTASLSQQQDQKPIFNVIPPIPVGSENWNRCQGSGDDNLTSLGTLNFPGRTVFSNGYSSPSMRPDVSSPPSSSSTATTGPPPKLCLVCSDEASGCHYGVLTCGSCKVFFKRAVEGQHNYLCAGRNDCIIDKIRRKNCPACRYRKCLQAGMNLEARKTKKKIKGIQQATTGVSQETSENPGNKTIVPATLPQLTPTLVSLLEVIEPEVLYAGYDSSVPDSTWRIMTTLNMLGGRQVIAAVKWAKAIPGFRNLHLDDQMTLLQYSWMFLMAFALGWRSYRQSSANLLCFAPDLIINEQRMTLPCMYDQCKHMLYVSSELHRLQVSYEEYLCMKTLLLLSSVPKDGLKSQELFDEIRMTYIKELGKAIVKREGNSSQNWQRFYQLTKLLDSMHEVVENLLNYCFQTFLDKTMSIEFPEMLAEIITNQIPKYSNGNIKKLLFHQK

Sequence of HTR3A (P46098 24-478, species assumed): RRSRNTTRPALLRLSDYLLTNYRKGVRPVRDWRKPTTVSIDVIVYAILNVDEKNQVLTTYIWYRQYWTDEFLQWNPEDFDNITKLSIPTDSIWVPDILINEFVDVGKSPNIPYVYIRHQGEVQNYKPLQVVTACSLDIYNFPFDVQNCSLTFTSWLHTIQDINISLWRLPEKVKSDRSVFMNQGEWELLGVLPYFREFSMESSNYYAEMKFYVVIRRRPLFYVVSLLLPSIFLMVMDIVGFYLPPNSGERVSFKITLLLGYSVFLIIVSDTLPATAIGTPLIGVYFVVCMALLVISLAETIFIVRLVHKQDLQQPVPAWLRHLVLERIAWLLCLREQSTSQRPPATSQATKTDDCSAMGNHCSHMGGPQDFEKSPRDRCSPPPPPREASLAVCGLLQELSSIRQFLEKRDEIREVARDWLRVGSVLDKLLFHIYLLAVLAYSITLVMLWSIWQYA
Sequence of CHRM1 (P11229 whole entry, species assumed): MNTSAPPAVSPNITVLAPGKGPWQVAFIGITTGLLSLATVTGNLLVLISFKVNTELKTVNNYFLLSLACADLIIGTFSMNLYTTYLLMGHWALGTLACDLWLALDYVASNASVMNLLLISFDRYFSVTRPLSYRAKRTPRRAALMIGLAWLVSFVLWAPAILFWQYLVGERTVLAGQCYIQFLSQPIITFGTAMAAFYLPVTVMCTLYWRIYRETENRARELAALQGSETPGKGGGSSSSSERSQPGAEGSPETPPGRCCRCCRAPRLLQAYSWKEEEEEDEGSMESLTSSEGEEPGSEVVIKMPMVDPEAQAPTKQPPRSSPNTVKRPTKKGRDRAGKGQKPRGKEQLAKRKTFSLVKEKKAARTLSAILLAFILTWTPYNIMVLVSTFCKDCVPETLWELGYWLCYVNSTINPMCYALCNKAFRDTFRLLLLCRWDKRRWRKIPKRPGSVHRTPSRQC
Sequence of nAChR(a4/b2) (P43681 29-627 limits assumed): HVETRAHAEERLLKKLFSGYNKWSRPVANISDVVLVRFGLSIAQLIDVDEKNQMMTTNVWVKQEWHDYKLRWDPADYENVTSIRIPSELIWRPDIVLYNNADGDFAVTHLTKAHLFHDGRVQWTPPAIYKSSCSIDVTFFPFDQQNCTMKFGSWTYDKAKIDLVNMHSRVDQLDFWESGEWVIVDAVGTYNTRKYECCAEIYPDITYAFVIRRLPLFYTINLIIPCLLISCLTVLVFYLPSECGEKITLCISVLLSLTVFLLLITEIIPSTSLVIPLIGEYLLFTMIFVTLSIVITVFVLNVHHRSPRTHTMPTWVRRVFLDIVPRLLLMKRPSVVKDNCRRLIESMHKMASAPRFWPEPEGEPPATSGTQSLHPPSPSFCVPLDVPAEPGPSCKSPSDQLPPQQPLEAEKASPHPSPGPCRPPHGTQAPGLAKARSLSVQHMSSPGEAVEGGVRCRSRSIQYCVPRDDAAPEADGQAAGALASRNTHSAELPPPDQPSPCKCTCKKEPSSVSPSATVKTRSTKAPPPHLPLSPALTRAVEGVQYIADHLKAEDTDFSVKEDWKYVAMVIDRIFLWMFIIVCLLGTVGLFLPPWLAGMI
Sequence of nAChR(a4/b2) (P17787 26-502): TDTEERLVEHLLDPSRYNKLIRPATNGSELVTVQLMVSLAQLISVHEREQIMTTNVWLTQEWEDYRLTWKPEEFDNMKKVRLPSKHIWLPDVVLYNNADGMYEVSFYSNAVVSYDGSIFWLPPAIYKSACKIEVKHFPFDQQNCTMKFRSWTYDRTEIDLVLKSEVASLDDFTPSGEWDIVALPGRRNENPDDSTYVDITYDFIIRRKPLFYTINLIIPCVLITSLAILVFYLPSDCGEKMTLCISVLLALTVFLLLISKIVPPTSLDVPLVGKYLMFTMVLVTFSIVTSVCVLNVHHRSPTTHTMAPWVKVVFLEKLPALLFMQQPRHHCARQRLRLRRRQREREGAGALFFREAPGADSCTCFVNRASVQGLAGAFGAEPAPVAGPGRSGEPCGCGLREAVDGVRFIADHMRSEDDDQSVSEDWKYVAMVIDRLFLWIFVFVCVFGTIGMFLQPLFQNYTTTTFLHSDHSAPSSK
Sequence of HTR2B (P41595 whole entry, species assumed): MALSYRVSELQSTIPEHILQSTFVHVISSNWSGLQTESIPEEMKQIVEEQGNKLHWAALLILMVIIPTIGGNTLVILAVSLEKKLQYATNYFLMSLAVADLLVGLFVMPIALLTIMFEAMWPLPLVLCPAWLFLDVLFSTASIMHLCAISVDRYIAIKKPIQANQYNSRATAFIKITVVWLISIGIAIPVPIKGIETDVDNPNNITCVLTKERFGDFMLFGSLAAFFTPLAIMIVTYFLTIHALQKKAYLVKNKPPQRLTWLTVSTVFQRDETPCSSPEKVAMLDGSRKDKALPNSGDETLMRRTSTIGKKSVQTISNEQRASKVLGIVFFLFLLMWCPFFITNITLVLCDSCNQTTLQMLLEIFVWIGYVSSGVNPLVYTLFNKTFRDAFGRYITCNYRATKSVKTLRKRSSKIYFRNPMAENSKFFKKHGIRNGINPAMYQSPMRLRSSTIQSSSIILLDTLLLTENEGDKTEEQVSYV
Sequence of OPRD1 (P41143 whole entry, species assumed): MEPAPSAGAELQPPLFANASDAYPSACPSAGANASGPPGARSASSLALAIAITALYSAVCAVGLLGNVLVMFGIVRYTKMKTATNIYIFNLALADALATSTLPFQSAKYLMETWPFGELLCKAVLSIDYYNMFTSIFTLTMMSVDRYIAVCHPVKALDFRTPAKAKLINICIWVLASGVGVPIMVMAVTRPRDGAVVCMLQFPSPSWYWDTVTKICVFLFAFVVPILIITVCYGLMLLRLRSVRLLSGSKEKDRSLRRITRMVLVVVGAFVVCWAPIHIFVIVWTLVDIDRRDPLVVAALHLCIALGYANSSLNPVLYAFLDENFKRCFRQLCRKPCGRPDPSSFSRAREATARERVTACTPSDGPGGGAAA
Sequence of CNR2 (P34972 whole entry, species assumed): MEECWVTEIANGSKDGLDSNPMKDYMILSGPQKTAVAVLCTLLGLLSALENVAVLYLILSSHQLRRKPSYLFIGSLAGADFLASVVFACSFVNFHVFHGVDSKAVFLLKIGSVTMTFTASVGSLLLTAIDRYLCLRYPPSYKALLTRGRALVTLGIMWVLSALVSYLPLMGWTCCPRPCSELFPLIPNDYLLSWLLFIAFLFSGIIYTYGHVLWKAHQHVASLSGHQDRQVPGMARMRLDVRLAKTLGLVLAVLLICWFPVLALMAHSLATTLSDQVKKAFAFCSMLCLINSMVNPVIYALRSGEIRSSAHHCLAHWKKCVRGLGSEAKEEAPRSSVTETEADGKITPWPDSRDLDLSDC
Sequence of KvLQT1/mink (P51787 whole entry): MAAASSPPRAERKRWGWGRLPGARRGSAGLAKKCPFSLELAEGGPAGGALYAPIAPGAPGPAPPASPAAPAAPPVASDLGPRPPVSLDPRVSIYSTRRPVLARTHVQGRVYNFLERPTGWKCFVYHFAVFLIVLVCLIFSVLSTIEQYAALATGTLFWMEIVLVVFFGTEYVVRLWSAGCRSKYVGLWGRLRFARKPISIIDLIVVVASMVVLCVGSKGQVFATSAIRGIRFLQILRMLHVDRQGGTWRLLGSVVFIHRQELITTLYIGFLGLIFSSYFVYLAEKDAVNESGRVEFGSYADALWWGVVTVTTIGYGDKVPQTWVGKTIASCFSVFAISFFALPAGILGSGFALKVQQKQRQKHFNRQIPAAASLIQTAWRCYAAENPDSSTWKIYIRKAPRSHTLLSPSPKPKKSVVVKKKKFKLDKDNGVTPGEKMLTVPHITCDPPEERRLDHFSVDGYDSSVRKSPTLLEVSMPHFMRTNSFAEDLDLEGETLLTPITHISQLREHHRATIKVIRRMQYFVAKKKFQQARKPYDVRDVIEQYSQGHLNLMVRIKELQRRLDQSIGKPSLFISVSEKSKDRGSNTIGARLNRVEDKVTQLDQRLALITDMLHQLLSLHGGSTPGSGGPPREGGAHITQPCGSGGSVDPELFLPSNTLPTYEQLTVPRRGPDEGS

Structure (SMILES): Cn1cnc2c(=O)n(-c3cccnc3C3CC3)c3cc(Cl)ccc3c21 [SCR‐7952, 7‐chloro‐5‐(2‐cyclopropylpyridin‐3‐yl)‐1‐methyl‐1,5‐dihydro‐4H‐imidazo[4,5‐c]quinolin‐4‐one]
- EC50 [1]: > 10 µM
- IC50 [1]: > 10 µM
- EC50 [2]: > 10 µM
- IC50 [2]: > 10 µM
- IC50 [3]: > 10 µM
- EC50 [4]: > 10 µM
- IC50 [4]: > 10 µM
- EC50 [5]: > 10 µM
- IC50 [5]: > 10 µM
- IC50 [6]: > 10 µM
- IC50 [7]: > 10 µM
- IC50 [8]: > 10 µM
- EC50 [9]: > 10 µM
- IC50 [9]: > 10 µM
- EC50 [10]: > 10 µM
- IC50 [10]: > 10 µM
- EC50 [11]: > 10 µM
- IC50 [11]: > 10 µM
- EC50 [12]: > 10 µM
- IC50 [12]: > 10 µM
- EC50 [13]: > 10 µM
- IC50 [13]: > 10 µM
- EC50 [14]: > 10 µM
- IC50 [14]: > 10 µM
- EC50 [15]: > 10 µM
- IC50 [15]: > 10 µM
- EC50 [16]: > 10 µM
- IC50 [16]: > 10 µM
- IC50 [17]: 4.31 µM
- fold difference of antiproliferative effect of SCR-7952 and AG-270 ([18]; HCT116 MTAP−/− cells, 34.4 vs. 300.4 nM): 8.7 fold
- IC50 ([18]; Homo sapiens, HCT-116, 144 h, 6-day treatment, read-out: IC50, anti-proliferation HCT116 MTAP−/−): 0.0344 µM
- IC50 [19]: 0.488 µM
- IC50 [20]: 0.0043 µM
- IC50 [21]: 0.0197 µM
- IC50 [22]: 0.123 µM
- IC50 [23]: > 10 µM
- interaction on cell growth in combination with JNJ-64619178 [24]: synergistic interactions
- interaction on cell growth in combination with MRTX-1719 [24]: synergistic interactions
- synergistic effect in combination with GSK3326595 [24]: much weaker
- EC50 ([25]; read-out: GR Agonism EC50): > 10 µM
- IC50 ([25]; read-out: GR Antagonism IC50): > 10 µM

From PMC11413503, “SCR‐7952, a highly selective MAT2A inhibitor, demonstrates synergistic antitumor activities in combination with the S‐adenosylmethionine‐competitive or the methylthioadenosine‐cooperative protein arginine methyltransferase 5 inhibitors in methylthioadenosine phosphorylase‐deleted tumors” (MedComm, 2024)
